According to patent publication US20260008768A1, “UREA DERIVATIVES FOR INHIBITING NLRP3 AND USES THEREOF” (VENTUS THERAPEUTICS U.S., INC., priority 2023, published 2026):

Assays:
mouse NLRP3 = biological target: T1, mouse NLRP3 (Mus musculus, UniProt Q8R4B8); test: Mouse Whole Blood (mWB) NLRP3 Assay (LPS/ATP, IL-1b); type: cell-based
T1 construct: from tissue; host or cells: whole blood of female CD1 mice
Procedure: Reagents: The following reagents were used: blood collection tubes (Heparin); U-bottom 96-well tissue culture (Falcon 353077); HBSS for LPS, ATP and compound dilutions (Gibco 24020-117); and LPS, E. coli serotype O26:B6 (Sigma L-2654).
Mouse IL-1b MSD assay: Blood was drawn from female CD1 mice (9 to 10 weeks) by cardiac puncture. Blood was plated (135 μL) per well in 96-well U-bottom plates. 7.5 μL of 20×LPS (20 μg/mL, final concentration of 1 μg/mL) was added and mixed by gentle pipetting, and the mixture was incubated in a TC incubator for five hours. 7.5 μL of 20× compound or vehicle per well was added and mixed by gentle pipetting. Compounds were diluted 1/50 in HBSS to prepare a 20× dilution curve in 2% DMSO. The mixture was incubated for 30 minutes in a TC incubator with shaking (450 rpm). 5 μl of 31×ATP (155 mM, final concentration of 5 mM) was added and mixed by gentle pipetting. The mixture was incubated in a TC incubator for 30 minutes with shaking (450 rpm). The plate was centrifuged for 10 minutes at 800×g and ˜70 μL of plasma was removed. Plasma was frozen if required. Mouse IL-1b was analyzed with IL-1b MSD assay (K152TUK).
Compounds were added 30 minutes before priming the cells with LPS when TNFα was required to be quantified in the cytokine panel to confirm selectivity.
mWB NLRP3 IC50 assay results, as a measurement of whole blood potency, are provided in Table B. “A” activity=<1 uM; “B” activity=1-2 uM; “C” activity=>2-3 uM; “D” activity=>3 uM.

human NLRP3 [1] = biological target: T2, human NLRP3 (Homo sapiens, UniProt Q96P20); test: Human PBMC NLRP3 Assay (LPS priming, ATP stimulation, cytokine measurement); type: cell-based; set-up: host or cells: human PBMCs (A2); human whole blood from healthy volunteers (A3); details: for IC50: human PBMC, LPS + ATP
Summary of the method: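 Human PBMCs (5×10^4/well) primed with 100 ng/ml LPS for 4 h, then given compound for 30 min and stimulated with 5 mM ATP for 1 h at 37° C. Supernatant cytokines measured on the Mesoscale platform to give IC50. For TNFα selectivity, compound was added 30 min before LPS priming.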

human NLRP3 [2] = biological target: T2, human NLRP3; test: Scintillation Proximity (SPA) NLRP3 Assay, displacement of 3H-MCC950; type: binding; details: for IC50: displacement of 3H-MCC950 from human NLRP3
Summary of the method: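 Displacement of radioligand 3H-MCC950 (125 nM final) from 350 nM human NLRP3, read by scintillation proximity after 6 h equilibration with PVT beads. Buffer: 20 mM HEPES pH 7.5, 150 mM NaCl, 5 mM MgCl2, 100 μM ADP; compound preincubated 15 min, ligand 60 min, RT. IC50 from specific binding.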

[3] = relative to Comparative Example B1

T1 sequence (Q8R4B8 whole entry): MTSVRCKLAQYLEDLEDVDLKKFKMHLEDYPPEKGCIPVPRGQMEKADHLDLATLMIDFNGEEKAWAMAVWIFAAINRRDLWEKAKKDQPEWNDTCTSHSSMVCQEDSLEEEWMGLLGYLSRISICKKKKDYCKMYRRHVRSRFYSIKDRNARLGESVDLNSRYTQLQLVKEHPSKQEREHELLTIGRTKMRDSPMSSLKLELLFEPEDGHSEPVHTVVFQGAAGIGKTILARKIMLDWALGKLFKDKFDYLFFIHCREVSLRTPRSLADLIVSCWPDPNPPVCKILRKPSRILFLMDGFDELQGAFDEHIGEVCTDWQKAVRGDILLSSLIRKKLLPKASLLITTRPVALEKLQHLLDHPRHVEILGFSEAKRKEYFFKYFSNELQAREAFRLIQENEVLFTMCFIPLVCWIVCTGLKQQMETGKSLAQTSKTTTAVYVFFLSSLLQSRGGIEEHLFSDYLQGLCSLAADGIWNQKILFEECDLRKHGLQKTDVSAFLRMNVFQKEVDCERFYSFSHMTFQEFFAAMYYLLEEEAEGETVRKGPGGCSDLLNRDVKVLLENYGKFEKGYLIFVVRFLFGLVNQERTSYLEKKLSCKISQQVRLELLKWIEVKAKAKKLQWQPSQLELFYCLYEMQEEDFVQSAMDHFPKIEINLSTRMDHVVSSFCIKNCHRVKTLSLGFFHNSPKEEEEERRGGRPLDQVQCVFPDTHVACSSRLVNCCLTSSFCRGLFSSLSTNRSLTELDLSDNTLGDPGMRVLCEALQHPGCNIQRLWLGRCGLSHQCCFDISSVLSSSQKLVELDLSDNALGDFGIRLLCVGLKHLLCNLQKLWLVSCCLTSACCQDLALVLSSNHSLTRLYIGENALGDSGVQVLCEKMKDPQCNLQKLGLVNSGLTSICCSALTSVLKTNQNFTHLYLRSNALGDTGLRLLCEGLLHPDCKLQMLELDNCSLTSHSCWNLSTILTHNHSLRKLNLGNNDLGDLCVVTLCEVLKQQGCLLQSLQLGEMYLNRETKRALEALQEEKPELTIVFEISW
T2 sequence (Q96P20 whole entry): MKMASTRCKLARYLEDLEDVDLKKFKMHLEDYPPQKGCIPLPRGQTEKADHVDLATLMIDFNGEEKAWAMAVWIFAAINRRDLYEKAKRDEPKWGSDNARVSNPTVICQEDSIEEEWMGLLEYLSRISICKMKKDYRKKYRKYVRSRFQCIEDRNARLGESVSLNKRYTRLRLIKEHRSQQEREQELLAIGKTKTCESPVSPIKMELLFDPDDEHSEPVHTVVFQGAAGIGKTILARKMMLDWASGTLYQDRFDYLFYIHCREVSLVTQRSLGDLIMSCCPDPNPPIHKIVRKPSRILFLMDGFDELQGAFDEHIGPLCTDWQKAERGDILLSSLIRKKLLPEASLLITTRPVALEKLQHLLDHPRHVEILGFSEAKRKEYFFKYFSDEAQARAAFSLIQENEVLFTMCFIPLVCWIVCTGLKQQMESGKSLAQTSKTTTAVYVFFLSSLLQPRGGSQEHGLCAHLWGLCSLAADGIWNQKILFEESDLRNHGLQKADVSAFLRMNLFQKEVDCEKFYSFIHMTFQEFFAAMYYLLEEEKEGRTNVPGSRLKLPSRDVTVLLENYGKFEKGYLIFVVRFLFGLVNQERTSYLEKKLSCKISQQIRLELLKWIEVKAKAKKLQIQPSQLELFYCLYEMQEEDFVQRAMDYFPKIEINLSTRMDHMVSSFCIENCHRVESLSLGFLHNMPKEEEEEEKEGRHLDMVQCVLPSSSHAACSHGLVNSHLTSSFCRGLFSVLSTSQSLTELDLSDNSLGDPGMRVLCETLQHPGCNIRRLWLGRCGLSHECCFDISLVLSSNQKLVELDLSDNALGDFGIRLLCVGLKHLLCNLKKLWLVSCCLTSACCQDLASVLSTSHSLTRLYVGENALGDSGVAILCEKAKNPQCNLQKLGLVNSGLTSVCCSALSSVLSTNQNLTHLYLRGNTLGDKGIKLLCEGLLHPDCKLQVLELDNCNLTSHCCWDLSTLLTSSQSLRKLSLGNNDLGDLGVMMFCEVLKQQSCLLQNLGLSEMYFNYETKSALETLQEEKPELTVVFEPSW

`C[C@@H]1CCN(c2nnn[nH]2)C[C@H](NC(=O)N(C)c2ccc(Cl)cc2)C1` (single isomer, unassigned) [4A*] was tested. Which IC50 (mouse NLRP3; Table B, activity class) did it give?
The IC50 was < 1000 nM.

And the IC50 (mouse NLRP3; Table C)?
The IC50 was 40 nM.

And the IC50 (human NLRP3 [1]; Table B, activity class)?
The IC50 was < 10 nM.

And the IC50 (human NLRP3 [1]; Table C)?
The IC50 was 6.8 nM.

And the “fold improvement in potency (PBMC IC50)” value (human NLRP3 [1]; [3])?
Its value is > 700 fold.

And the IC50 (human NLRP3 [2]; Table B, activity class)?
The IC50 was < 1000 nM.

What about the IC50 (human NLRP3 [2]; Table C) of the same compound?
The IC50 was 96 nM.

What about the “fold improvement in binding activity (SPA IC50)” value (human NLRP3 [2]; [3]) of the same compound?
The value was > 1950 fold.

Which IC50 (mouse NLRP3; Table B, activity class) does the source give for `C[C@@H]1CCN(c2nnn[nH]2)C[C@H](NC(=O)N(C)c2ccc(OC(F)(F)F)cc2)C1` (single isomer, unassigned) [10A*] here?
The IC50 was < 1000 nM.

And the IC50 (mouse NLRP3; Table C)?
Its IC50 is 95 nM.

And the IC50 (human NLRP3 [1]; Table B, activity class)?
The IC50 was < 10 nM.

What about the IC50 (human NLRP3 [1]; Table C) of the same compound?
The IC50 was 9.1 nM.

What about the IC50 (human NLRP3 [2]; Table B, activity class) of the same compound?
The IC50 was < 1000 nM.

And the IC50 (human NLRP3 [2]; Table C)?
Its IC50 is 200 nM.

With `C[C@@H]1CCN(c2nnn[nH]2)C[C@H](NC(=O)N(C)c2ccc(OC(F)F)cc2)C1` (single isomer, unassigned) [11A*] as the compound, how does the IC50 (mouse NLRP3; Table B, activity class) read?
Its IC50 is < 1000 nM.

What about the IC50 (mouse NLRP3; Table C) of the same compound?
The IC50 was 26 nM.

What about the IC50 (human NLRP3 [1]; Table B, activity class) of the same compound?
Its IC50 is < 10 nM.

And the IC50 (human NLRP3 [1]; Table C)?
Its IC50 is 4.2 nM.

What about the IC50 (human NLRP3 [2]; Table B, activity class) of the same compound?
Its IC50 is < 1000 nM.

And the IC50 (human NLRP3 [2]; Table C)?
The IC50 was 140 nM.

And the “fold increase in binding activity (SPA IC50)” value (human NLRP3 [2]; relative to Compound 39A)?
Its value is 5.9 fold.
